Data as given in PubChem BioAssay (NCI).
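Five compound concentrations were applied to cells in 96-well plates for 48 hours; endpoints were derived by simple linear interpolation of the resulting dose-response curve. Definition used: TGI = concentration required for complete inhibition of growth.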

Test system: SR leukemia
Assay: NCI-60 cell line screen, 48 h

Compound	TGI
CCC1(O)C(=O)OCc2c1cc1n(c2=O)Cc2cc3cc(OC)c(OC)cc3nc2-1 (stereo unspecified)	7.68 µM
FC(F)(F)c1cccc(C=NC23CC4CC(CC(C4)C2)C3)c1	> 100 µM
N#CNC1=NC(Cc2ccccc2)C(=O)N1CCc1c[nH]c2ccccc12 (stereo unspecified)	> 100 µM

Test system: OVCAR-4 ovarian
Assay: NCI-60 cell line screen, 48 h

Compound	TGI
CCC1(O)C(=O)OCc2c1cc1n(c2=O)Cc2cc3cc(OC)c(OC)cc3nc2-1 (stereo unspecified)	> 100 µM
FC(F)(F)c1cccc(C=NC23CC4CC(CC(C4)C2)C3)c1	> 100 µM
O=C(CCC(=O)Nc1ccc(Cl)c(Cl)c1)CC(=O)c1ccc(Cl)cc1	> 100 µM
COc1ccc(Cc2nccc3cc(OC)c(OC)cc23)cc1	> 100 µM
N#CNC1=NC(Cc2ccccc2)C(=O)N1CCc1c[nH]c2ccccc12 (stereo unspecified)	> 100 µM

Test system: SNB-75 CNS
Assay: NCI-60 cell line screen, 48 h

Compound	TGI
CCC1(O)C(=O)OCc2c1cc1n(c2=O)Cc2cc3cc(OC)c(OC)cc3nc2-1 (stereo unspecified)	41 µM
FC(F)(F)c1cccc(C=NC23CC4CC(CC(C4)C2)C3)c1	> 100 µM
COc1ccc(Cc2nccc3cc(OC)c(OC)cc23)cc1	> 100 µM
N#CNC1=NC(Cc2ccccc2)C(=O)N1CCc1c[nH]c2ccccc12 (stereo unspecified)	33.2 µM

Test system: HCT-116 colon
Assay: NCI-60 cell line screen, 48 h

Compound	TGI
CCC1(O)C(=O)OCc2c1cc1n(c2=O)Cc2cc3cc(OC)c(OC)cc3nc2-1 (stereo unspecified)	> 100 µM
FC(F)(F)c1cccc(C=NC23CC4CC(CC(C4)C2)C3)c1	> 100 µM
O=C(CCC(=O)Nc1ccc(Cl)c(Cl)c1)CC(=O)c1ccc(Cl)cc1	> 100 µM
COc1ccc(Cc2nccc3cc(OC)c(OC)cc23)cc1	> 100 µM
N#CNC1=NC(Cc2ccccc2)C(=O)N1CCc1c[nH]c2ccccc12 (stereo unspecified)	50.4 µM

Test system: SK-MEL-28 melanoma
Assay: NCI-60 cell line screen, 48 h

Compound	TGI
CCC1(O)C(=O)OCc2c1cc1n(c2=O)Cc2cc3cc(OC)c(OC)cc3nc2-1 (stereo unspecified)	> 100 µM
FC(F)(F)c1cccc(C=NC23CC4CC(CC(C4)C2)C3)c1	> 100 µM
COc1ccc(Cc2nccc3cc(OC)c(OC)cc23)cc1	> 100 µM
N#CNC1=NC(Cc2ccccc2)C(=O)N1CCc1c[nH]c2ccccc12 (stereo unspecified)	67.8 µM

Test system: MOLT-4 leukemia
Assay: NCI-60 cell line screen, 48 h

Compound	TGI
CCC1(O)C(=O)OCc2c1cc1n(c2=O)Cc2cc3cc(OC)c(OC)cc3nc2-1 (stereo unspecified)	> 100 µM
FC(F)(F)c1cccc(C=NC23CC4CC(CC(C4)C2)C3)c1	> 100 µM
O=C(CCC(=O)Nc1ccc(Cl)c(Cl)c1)CC(=O)c1ccc(Cl)cc1	> 100 µM
COc1ccc(Cc2nccc3cc(OC)c(OC)cc23)cc1	> 100 µM
N#CNC1=NC(Cc2ccccc2)C(=O)N1CCc1c[nH]c2ccccc12 (stereo unspecified)	58.3 µM

Test system: OVCAR-5 ovarian
Assay: NCI-60 cell line screen, 48 h

Compound	TGI
CCC1(O)C(=O)OCc2c1cc1n(c2=O)Cc2cc3cc(OC)c(OC)cc3nc2-1 (stereo unspecified)	> 100 µM
FC(F)(F)c1cccc(C=NC23CC4CC(CC(C4)C2)C3)c1	> 100 µM
O=C(CCC(=O)Nc1ccc(Cl)c(Cl)c1)CC(=O)c1ccc(Cl)cc1	> 100 µM
COc1ccc(Cc2nccc3cc(OC)c(OC)cc23)cc1	> 100 µM

Test system: KM20L2 colon
Assay: NCI-60 cell line screen, 48 h

Compound	TGI
CCC1(O)C(=O)OCc2c1cc1n(c2=O)Cc2cc3cc(OC)c(OC)cc3nc2-1 (stereo unspecified)	> 100 µM
FC(F)(F)c1cccc(C=NC23CC4CC(CC(C4)C2)C3)c1	> 100 µM
O=C(CCC(=O)Nc1ccc(Cl)c(Cl)c1)CC(=O)c1ccc(Cl)cc1	> 100 µM
COc1ccc(Cc2nccc3cc(OC)c(OC)cc23)cc1	> 100 µM

Test system: RXF 393 renal
Assay: NCI-60 cell line screen, 48 h

Compound	TGI
CCC1(O)C(=O)OCc2c1cc1n(c2=O)Cc2cc3cc(OC)c(OC)cc3nc2-1 (stereo unspecified)	71.8 µM
FC(F)(F)c1cccc(C=NC23CC4CC(CC(C4)C2)C3)c1	> 100 µM

Test system: CAKI-1 renal
Assay: NCI-60 cell line screen, 48 h

Compound	TGI
FC(F)(F)c1cccc(C=NC23CC4CC(CC(C4)C2)C3)c1	> 100 µM
O=C(CCC(=O)Nc1ccc(Cl)c(Cl)c1)CC(=O)c1ccc(Cl)cc1	> 100 µM
COc1ccc(Cc2nccc3cc(OC)c(OC)cc23)cc1	> 100 µM

Test system: DMS 114 small cell lung
Assay: NCI-60 cell line screen, 48 h

Compound	TGI
CCC1(O)C(=O)OCc2c1cc1n(c2=O)Cc2cc3cc(OC)c(OC)cc3nc2-1 (stereo unspecified)	> 100 µM
FC(F)(F)c1cccc(C=NC23CC4CC(CC(C4)C2)C3)c1	> 100 µM
O=C(CCC(=O)Nc1ccc(Cl)c(Cl)c1)CC(=O)c1ccc(Cl)cc1	> 100 µM
COc1ccc(Cc2nccc3cc(OC)c(OC)cc23)cc1	> 100 µM
N#CNC1=NC(Cc2ccccc2)C(=O)N1CCc1c[nH]c2ccccc12 (stereo unspecified)	91.9 µM

Test system: SF-295 CNS
Assay: NCI-60 cell line screen, 48 h

Compound	TGI
CCC1(O)C(=O)OCc2c1cc1n(c2=O)Cc2cc3cc(OC)c(OC)cc3nc2-1 (stereo unspecified)	> 100 µM
FC(F)(F)c1cccc(C=NC23CC4CC(CC(C4)C2)C3)c1	> 100 µM
O=C(CCC(=O)Nc1ccc(Cl)c(Cl)c1)CC(=O)c1ccc(Cl)cc1	> 100 µM
COc1ccc(Cc2nccc3cc(OC)c(OC)cc23)cc1	> 100 µM
N#CNC1=NC(Cc2ccccc2)C(=O)N1CCc1c[nH]c2ccccc12 (stereo unspecified)	> 100 µM

Test system: SK-MEL-2 melanoma
Assay: NCI-60 cell line screen, 48 h

Compound	TGI
FC(F)(F)c1cccc(C=NC23CC4CC(CC(C4)C2)C3)c1	> 100 µM
O=C(CCC(=O)Nc1ccc(Cl)c(Cl)c1)CC(=O)c1ccc(Cl)cc1	> 100 µM
COc1ccc(Cc2nccc3cc(OC)c(OC)cc23)cc1	> 100 µM

Test system: HOP-18 NSCLC
Assay: NCI-60 cell line screen, 48 h

Compound	TGI
CCC1(O)C(=O)OCc2c1cc1n(c2=O)Cc2cc3cc(OC)c(OC)cc3nc2-1 (stereo unspecified)	> 100 µM
O=C(CCC(=O)Nc1ccc(Cl)c(Cl)c1)CC(=O)c1ccc(Cl)cc1	> 100 µM

Test system: SNB-19 CNS
Assay: NCI-60 cell line screen, 48 h

Compound	TGI
CCC1(O)C(=O)OCc2c1cc1n(c2=O)Cc2cc3cc(OC)c(OC)cc3nc2-1 (stereo unspecified)	85.2 µM
FC(F)(F)c1cccc(C=NC23CC4CC(CC(C4)C2)C3)c1	> 100 µM
O=C(CCC(=O)Nc1ccc(Cl)c(Cl)c1)CC(=O)c1ccc(Cl)cc1	> 100 µM
COc1ccc(Cc2nccc3cc(OC)c(OC)cc23)cc1	> 100 µM
N#CNC1=NC(Cc2ccccc2)C(=O)N1CCc1c[nH]c2ccccc12 (stereo unspecified)	> 100 µM

Test system: HL-60(TB) leukemia
Assay: NCI-60 cell line screen, 48 h

Compound	TGI
CCC1(O)C(=O)OCc2c1cc1n(c2=O)Cc2cc3cc(OC)c(OC)cc3nc2-1 (stereo unspecified)	> 100 µM
FC(F)(F)c1cccc(C=NC23CC4CC(CC(C4)C2)C3)c1	> 100 µM
